Measured values: US20250186408A1, “TREATMENT OF PHARMACORESISTANT EPILEPSY” (Katholieke Universiteit Leuven, priority 2021, published 2025)
Where two headings read alike, the source gives them in different places.

Columns and labels:
[1] = target: T1, ADRA1A (Homo sapiens, UniProt P35348); assay: Calcium Flux ADRA1A Antagonist; conditions: for Emax: read-out: Max response
T1 sequence (P35348 1-466): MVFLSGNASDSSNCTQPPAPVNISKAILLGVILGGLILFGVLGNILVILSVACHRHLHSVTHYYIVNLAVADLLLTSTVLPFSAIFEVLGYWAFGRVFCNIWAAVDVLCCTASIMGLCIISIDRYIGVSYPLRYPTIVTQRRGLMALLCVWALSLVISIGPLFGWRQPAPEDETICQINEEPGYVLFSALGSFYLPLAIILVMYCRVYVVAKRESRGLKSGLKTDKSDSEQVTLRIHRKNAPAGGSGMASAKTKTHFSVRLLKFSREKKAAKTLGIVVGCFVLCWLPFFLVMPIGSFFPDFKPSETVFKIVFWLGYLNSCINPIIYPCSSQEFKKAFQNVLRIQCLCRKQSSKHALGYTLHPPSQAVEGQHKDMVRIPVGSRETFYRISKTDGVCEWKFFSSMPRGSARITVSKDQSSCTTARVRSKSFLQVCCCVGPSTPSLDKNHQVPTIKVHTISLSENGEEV
Description: (§1) In vitro pharmacological profiling of compounds was done against 78 functional assays for 47 common off-targets (30) by Eurofins DiscoverX Corporation (Fremont, CA, USA) using their SAFETYscan E/IC50 ELECT service (Cat Ref 87-1003DR, Safety47 Panel Dose Response). […] Compounds were tested in a range of 10 concentrations, following a 3-fold serial dilution, starting from 10 μM. The assays were performed utilizing the PathHunter enzyme fragment complementation (EFC) technology, FLIPR®-based cellular screening assays, and KINOMEscan kinase binding assays.
(§2) Prior to testing, cells (10,000 cells/well) were expanded from freezer stocks and seeded into a total volume of 50 μL into black walled, clear-bottom, Poly-D-lysine coated 384-well microplates and incubated at 37° C. […] Assays were performed in 1× dye loading buffer consisting of 1× Dye (DiscoverX, Calcium No Wash^PLUS kit, Catalog No. 90-0091), 1× Additive A and 2.5 mM Probenecid in HBSS/20 mM HEPES. Probenecid was prepared fresh. Prior to testing, media was aspirated from cells and replaced with 25 μL dye loading buffer. Cells were incubated for 45 min at 37° C. and then 20 min at RT. For agonist determination, 25 μL of 2× compound in HBSS/20 mM HEPES was added using a FLIPR Tetra (MDS). For antagonist determination, cells were pre-incubated with sample followed by agonist challenge at the EC80 concentration. 25 μL of 2× sample was added and cells were incubated for 30 min at RT in the dark to equilibrate plate temperature. After incubation, antagonist determination was initiated by addition of 25 μL of 1× compound with 3×EC80 agonist using FLIPR. For both agonist and antagonist formats, activity was measure on a FLIPR Tetra (MDS). Calcium mobilization was monitored for 2 min with a 5 sec baseline read.
(§3) FLIPR read—Area under the curve, was calculated for the entire 2 min read. Compound activity was analysed using CBIS data analysis suite (ChemInnovation, CA).

[2] = target: hERG (Homo sapiens, UniProt Q12809); assay: Ion Channel hERG Blocker; type: cell-based; conditions: for Emax at 30 min: human, read-out: Max response; for IC50: read-out: RC50, result type IC50
[3] = target: HTR2B (Homo sapiens, UniProt P41595); assay: Calcium Flux HTR2B Agonist; conditions: for Emax: read-out: Max response
Description: as §1, §2, §3

[4] = target: T2, CHRM1 (Homo sapiens, UniProt P11229); assay: Calcium Flux CHRM1 Antagonist; conditions: for Emax: read-out: Max response
T2 sequence (P11229 1-460): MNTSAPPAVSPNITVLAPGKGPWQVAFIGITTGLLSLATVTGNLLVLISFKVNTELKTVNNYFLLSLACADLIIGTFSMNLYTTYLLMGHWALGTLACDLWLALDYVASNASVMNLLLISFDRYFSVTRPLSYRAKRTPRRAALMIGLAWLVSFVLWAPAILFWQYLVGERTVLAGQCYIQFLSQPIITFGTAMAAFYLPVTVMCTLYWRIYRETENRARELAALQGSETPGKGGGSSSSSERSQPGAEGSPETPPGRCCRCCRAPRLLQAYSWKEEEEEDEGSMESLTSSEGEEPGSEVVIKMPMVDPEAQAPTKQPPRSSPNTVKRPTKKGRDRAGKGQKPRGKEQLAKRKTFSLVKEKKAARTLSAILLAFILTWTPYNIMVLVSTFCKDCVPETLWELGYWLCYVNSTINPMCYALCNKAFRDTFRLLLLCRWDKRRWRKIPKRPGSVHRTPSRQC
Description: as §1, §2, §3

[5] = test system: male NMRI mice; assay: Mouse 6-Hz (44 mA) psychomotor seizure model; type: in vivo; conditions: 30 min before stimulation; for dose-response relationship (in words): i.p.
Description: The antiseizure activity of compounds was investigated in the mouse 6-Hz (44 mA) psychomotor seizure model as described before (27). […] Seizure behaviour was video recorded and seizure durations were determined by blinded video analysis by experienced researchers, familiar with the different seizure characteristics. Data are expressed as mean±SD.
The 6-Hz 44 mA model is an acute model of pharmacoresistant focal impaired awareness seizures, previously referred to as complex partial or psychomotor seizures that are induced by a low frequency, long duration corneal electrical stimulation (6 Hz, 0.2 ms rectangular pulse width, 3 s duration, 44 mA). Seizures are typically characterized by a clonic phase and stereotypical automatic behaviours like stun, forelimb clonus, Straub tail and vibrissae twitching.

[6] = target: HRH1 (Homo sapiens, UniProt P35367); assay: Calcium Flux HRH1 Antagonist; type: cell-based; conditions: for Emax: read-out: Max response
Description: (≤0.2% DMSO concentration). Assays were performed in 1× dye loading buffer consisting of 1× Dye (DiscoverX, Calcium No Wash^PLUS kit, Catalog No. 90-0091), 1× Additive A and 2.5 mM Probenecid in HBSS/20 mM HEPES. Probenecid was prepared fresh. Prior to testing, media was aspirated from cells and replaced with 25 μL dye loading buffer. Cells were incubated for 45 min at 37° C. and then 20 min at RT. For agonist determination, 25 μL of 2× compound in HBSS/20 mM HEPES was added using a FLIPR Tetra (MDS). […] 25 μL of 2× sample was added and cells were incubated for 30 min at RT in the dark to equilibrate plate temperature. After incubation, antagonist determination was initiated by addition of 25 μL of 1× compound with 3×EC80 agonist using FLIPR. For both agonist and antagonist formats, activity was measure on a FLIPR Tetra (MDS). Calcium mobilization was monitored for 2 min with a 5 sec baseline read.
FLIPR read—Area under the curve, was calculated for the entire 2 min read.

[7] = target: T3, HTR3A (Homo sapiens, UniProt P46098); assay: Ion Channel HTR3A Opener; type: cell-based; conditions: for Emax: Ion Channel HTR3A Opener, read-out: Max response
T3 sequence (P46098 24-478): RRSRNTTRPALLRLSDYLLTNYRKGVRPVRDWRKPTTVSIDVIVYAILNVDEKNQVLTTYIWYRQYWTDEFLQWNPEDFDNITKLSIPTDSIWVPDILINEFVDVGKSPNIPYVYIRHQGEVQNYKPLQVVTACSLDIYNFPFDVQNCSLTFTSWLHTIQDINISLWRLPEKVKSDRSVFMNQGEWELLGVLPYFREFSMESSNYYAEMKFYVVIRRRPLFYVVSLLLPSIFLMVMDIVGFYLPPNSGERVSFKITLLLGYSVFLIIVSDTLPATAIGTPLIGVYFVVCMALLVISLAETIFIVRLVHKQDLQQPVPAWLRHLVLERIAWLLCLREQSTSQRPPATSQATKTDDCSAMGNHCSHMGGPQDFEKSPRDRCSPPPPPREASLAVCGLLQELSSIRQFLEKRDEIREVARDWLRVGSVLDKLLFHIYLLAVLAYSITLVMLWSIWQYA

Sequence of HRH1 (P35367 whole entry): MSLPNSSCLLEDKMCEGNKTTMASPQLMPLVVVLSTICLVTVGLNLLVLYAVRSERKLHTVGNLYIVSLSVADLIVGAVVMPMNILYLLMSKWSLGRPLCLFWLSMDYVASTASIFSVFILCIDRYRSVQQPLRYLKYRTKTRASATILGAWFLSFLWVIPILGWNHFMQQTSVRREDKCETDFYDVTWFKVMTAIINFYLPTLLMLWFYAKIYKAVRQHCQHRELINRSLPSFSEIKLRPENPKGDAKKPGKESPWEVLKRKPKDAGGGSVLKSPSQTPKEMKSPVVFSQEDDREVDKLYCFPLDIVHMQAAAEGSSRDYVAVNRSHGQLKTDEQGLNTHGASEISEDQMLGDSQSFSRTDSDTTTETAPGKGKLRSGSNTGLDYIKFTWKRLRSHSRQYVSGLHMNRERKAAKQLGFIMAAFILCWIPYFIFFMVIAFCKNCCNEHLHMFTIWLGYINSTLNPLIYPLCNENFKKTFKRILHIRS
Sequence of hERG (Q12809 whole entry): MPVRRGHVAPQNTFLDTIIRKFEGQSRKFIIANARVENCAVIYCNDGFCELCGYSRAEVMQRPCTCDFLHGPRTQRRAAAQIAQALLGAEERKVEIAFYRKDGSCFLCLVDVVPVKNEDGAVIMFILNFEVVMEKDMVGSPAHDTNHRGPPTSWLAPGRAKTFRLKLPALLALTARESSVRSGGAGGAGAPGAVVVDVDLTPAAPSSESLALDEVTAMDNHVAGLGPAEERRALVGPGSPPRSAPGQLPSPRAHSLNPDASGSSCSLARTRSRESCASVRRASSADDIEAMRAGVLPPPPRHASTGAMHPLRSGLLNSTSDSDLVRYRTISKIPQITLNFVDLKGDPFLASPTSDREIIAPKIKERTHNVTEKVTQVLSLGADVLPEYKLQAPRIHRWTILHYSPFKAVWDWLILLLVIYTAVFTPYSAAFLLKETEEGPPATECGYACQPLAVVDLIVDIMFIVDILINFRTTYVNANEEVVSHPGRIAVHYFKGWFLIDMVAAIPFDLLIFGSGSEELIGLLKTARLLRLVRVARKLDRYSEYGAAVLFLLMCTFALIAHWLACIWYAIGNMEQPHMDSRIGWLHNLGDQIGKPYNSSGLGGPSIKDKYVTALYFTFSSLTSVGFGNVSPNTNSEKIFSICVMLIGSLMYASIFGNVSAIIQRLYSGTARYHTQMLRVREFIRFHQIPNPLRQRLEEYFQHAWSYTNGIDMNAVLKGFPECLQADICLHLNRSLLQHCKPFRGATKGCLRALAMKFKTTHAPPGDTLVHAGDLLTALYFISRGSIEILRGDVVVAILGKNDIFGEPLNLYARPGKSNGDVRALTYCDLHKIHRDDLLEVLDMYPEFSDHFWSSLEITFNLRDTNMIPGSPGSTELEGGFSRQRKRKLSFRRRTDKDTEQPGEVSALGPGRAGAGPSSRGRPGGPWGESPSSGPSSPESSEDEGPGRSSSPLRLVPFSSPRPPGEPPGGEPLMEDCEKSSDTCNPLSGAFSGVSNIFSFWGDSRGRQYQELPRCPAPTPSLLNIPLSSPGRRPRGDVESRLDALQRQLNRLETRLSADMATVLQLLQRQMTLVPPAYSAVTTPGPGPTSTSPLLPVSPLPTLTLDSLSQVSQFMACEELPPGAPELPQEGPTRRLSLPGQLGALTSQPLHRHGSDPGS
Sequence of HTR2B (P41595 whole entry): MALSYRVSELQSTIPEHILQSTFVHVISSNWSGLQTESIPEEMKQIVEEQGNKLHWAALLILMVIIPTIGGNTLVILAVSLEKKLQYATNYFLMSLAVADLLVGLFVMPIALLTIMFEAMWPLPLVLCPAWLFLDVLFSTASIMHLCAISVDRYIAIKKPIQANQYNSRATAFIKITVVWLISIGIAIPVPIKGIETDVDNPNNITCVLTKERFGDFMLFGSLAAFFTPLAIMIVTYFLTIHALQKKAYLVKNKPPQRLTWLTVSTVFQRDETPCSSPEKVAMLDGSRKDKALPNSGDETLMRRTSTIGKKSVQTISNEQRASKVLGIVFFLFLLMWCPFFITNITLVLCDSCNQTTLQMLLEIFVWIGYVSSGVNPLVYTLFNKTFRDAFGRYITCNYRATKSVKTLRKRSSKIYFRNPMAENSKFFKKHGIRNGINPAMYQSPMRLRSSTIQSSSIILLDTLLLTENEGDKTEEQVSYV

Structure (SMILES) | IC50 [1] | Emax [1] | Emax at 30 min [2] | IC50 [2] | EC50 [3] | Emax [3] | IC50 [4] | Emax [4] | mean seizure duration ([5]; 30 mg/kg i.p.) | mean seizure duration ([5]; 100 mg/kg i.p.) | mean seizure duration ([5]; 200 mg/kg i.p.) | mean seizure duration ([5]; 300 mg/kg i.p.) | mean seizure duration ([5]; 600 mg/kg i.p.) | dose-response relationship (in words) [5] | EC50 [7] | Emax [7] | further results
Clc1cccc(C#Cc2n[nH]c3ncccc23)c1 [Compound 10.1, 3-((3-chlorophenyl)ethynyl)-1H-pyrazolo[3,4-b]pyridine] | > 10 µM | 0% | 6.6% | > 10 µM | > 10 µM | 0% | > 10 µM | 5.5% | 5.5 s | 6.0 s | 8.5 s | 3.0 s | 0.8 s | displayed a dose-response relationship | > 10 µM | 3.4% | mean seizure duration ([5]; 10 mg/kg i.p.): 6.2 s; mean seizure duration ([5]; 400 mg/kg i.p.): 1.2 s; Emax ([6]; Calcium Flux HRH1 Antagonist): 1%; IC50 ([6]; Calcium Flux HRH1 Antagonist, read-out: RC50, result type IC50): > 10 µM
CC(C)(C)c1ccc(C#CC(O)c2ccccc2)cc1 (racemic) [Compound 3.3, rac-3-(4-(tert-butyl)phenyl)-1-phenylprop-2-yn-1-ol] | > 10 µM | 0% | 3.8% | > 10 µM | > 10 µM | 0% | > 10 µM | 0% | 9.5 s | 7.7 s | 1.1 s | 0 s | 1.00 s | displayed a dose-response relationship | > 10 µM | 0% | IC50 [6]: > 10 µM; Emax [6]: 0%
